Experimental data: patent publication US20060159631A1, “Compositions and methods for preventing dental stain” (SMITHKLINE BEECHAM CORPORATION, priority 2003, published 2006)

Experiment: Coffee stain challenge on saliva pellicle-treated HAP discs, rated by visual inspection
Conditions: subjective index of 1 to 10 (1 representing greatest stain), coffee 24 hours, None = 2.0
Method: In a series of experiments, HAP discs were first treated with saliva to generate an artificial pellicle. […] Following a second rinse, the active-treated discs were immersed in a concentrated solution of coffee for a period of 24 hours in order to simulate a dietary stain challenge. After rinsing to remove excess coffee solution, the discs were dried and rated for stain by visual inspection. Using a subjective index of 1 to 10 (1 representing greatest stain), stain intensity is tabluated below.

Compound | Stain Intensity (2% (w/w) active) | Stain Intensity (5% (w/w) active) | Stain Intensity (10% (w/w) active)
pegulated lauryl phosphate ether [DLP-10] | 3.5 | 4.0 | –
O=P(O)(O)OP(=O)(O)OP(=O)(O)O [STP] | – | – | 5.5
